From PubChem BioAssay (NCI) come the findings set out here.

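Grown in 96-well plates, cells were treated for 48 hours with each compound at five concentrations. Insufficient inhibition: endpoint recorded as highest concentration tested. TGI: total growth inhibition.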 Where a SMILES comes first, the peptide text is derived from it. [ ]: non-standard residue; d: D form. The star is where a group is joined. ξ: configuration not given here. Propanoyl(3-(4-MeO-Ph)) = COc1ccc(CCC(=O)*)cc1; Thr(3ξ) = CC(O)[C@H](N)C(=O)O; dNMeL = CN[C@H](CC(C)C)C(=O)O; ξLac = CC(O)C(=O)O

Some test systems named below: A549 NSCLC; HS 578T breast; LOX IMVI melanoma; MALME-3M melanoma; MDA-N; OVCAR-3 ovarian; OVCAR-5 ovarian; SK-MEL-2 melanoma; SW-620 colon; TK-10 renal.
Common to all, as to assay: NCI-60 cell line screen, 48 h

Regarding `COC(=O)[C@@H](NC(=O)[C@@H](CC(C)C)N(C)C(=O)[C@@H]1CCCN1C(=O)C(C)O)C(C)OC(=O)CCc1ccc(OC)cc1` (stereo not given in full) (H-[ξLac]P[dNMeL][Thr(3ξ)](Propanoyl(3-(4-MeO-Ph)))-OMe), the TGI in the assay on A549 NSCLC, with HS 578T breast, with LOX IMVI melanoma, in the assay on MALME-3M melanoma, with MDA-N and with OVCAR-3 ovarian was above 100 µM throughout. The TGI with OVCAR-5 ovarian, in the assay with SK-MEL-2 melanoma, in the assay with SW-620 colon and in the assay on TK-10 renal was above 100 µM each time.

`Cn1c(N=[N+]=[N-])cc(=O)n(C)c1=O`: the TGI with A549 NSCLC, with HS 578T breast, with LOX IMVI melanoma, with MALME-3M melanoma, with MDA-N and with OVCAR-3 ovarian was above 100 µM each time. Further, the TGI in the assay with OVCAR-5 ovarian, with SK-MEL-2 melanoma, in the assay on SW-620 colon and with TK-10 renal was above 100 µM in each case.

As for `COc1ccc(-c2nnc(CCCCCCCCc3nnc(-c4ccc(OC)cc4)n3N)n2N)cc1`, the TGI in the assay on A549 NSCLC, in the assay on HS 578T breast, in the assay on LOX IMVI melanoma, in the assay with MALME-3M melanoma, with MDA-N and in the assay on OVCAR-3 ovarian was above 100 µM throughout. Besides, the TGI in the assay with OVCAR-5 ovarian, in the assay on SK-MEL-2 melanoma, in the assay on SW-620 colon and in the assay with TK-10 renal was above 100 µM throughout.

`C=CCCC(On1c(-c2ccc(Cl)cc2)csc1=S)c1ccccc1` (stereo not given): the TGI was above 100 µM in the assay with A549 NSCLC; above 100 µM with HS 578T breast; above 100 µM in the assay with LOX IMVI melanoma; 98.4 µM in the assay with MALME-3M melanoma; 13.4 µM in the assay with MDA-N; above 100 µM in the assay with OVCAR-3 ovarian. Besides, the TGI in the assay on OVCAR-5 ovarian, in the assay with SK-MEL-2 melanoma, with SW-620 colon and in the assay on TK-10 renal was above 100 µM in each case.

With `CC(=O)NC(C)c1ccc(N=NN2CCCC2)cc1` (stereo not given), the TGI in the assay on A549 NSCLC, in the assay with HS 578T breast, with LOX IMVI melanoma, in the assay on MALME-3M melanoma, in the assay on MDA-N and with OVCAR-3 ovarian was above 100 µM in each case. The TGI with OVCAR-5 ovarian, in the assay on SK-MEL-2 melanoma, in the assay with SW-620 colon and with TK-10 renal was above 100 µM throughout.

Turning to `CCOC(=O)C1C[C@H]2CO[C@H](c3ccccc3)N2C1=O` (stereo not given in full), the TGI in the assay on A549 NSCLC, in the assay with HS 578T breast, with LOX IMVI melanoma, in the assay on MALME-3M melanoma, in the assay on MDA-N and in the assay with OVCAR-3 ovarian was above 100 µM in each case. Also, the TGI with OVCAR-5 ovarian, with SK-MEL-2 melanoma, in the assay with SW-620 colon and in the assay on TK-10 renal was above 100 µM each time.

In the case of `O=C(CCc1ccc(O)c(O)c1)NCCc1ccc(O)c(O)c1`, the TGI in the assay on A549 NSCLC is above 100 µM; with HS 578T breast, above 100 µM; with LOX IMVI melanoma, above 100 µM; in the assay on MALME-3M melanoma it was above 100 µM; in the assay on MDA-N it was 33.9 µM; in the assay with OVCAR-3 ovarian, above 100 µM. In addition, the TGI in the assay on OVCAR-5 ovarian, with SK-MEL-2 melanoma, in the assay on SW-620 colon and in the assay on TK-10 renal was above 100 µM each time.

On to `CCOc1cc2c(cc1O)CC[C@@H]1[C@@H]2CC[C@]2(C)C(OS(=O)OC3CC[C@@H]4[C@H]5CCc6cc(O)c(OCC)cc6[C@@H]5CC[C@@]34C)CC[C@@H]12` (stereo not given in full), for which the TGI with A549 NSCLC is 11.3 µM; with HS 578T breast, above 57.3 µM; in the assay on LOX IMVI melanoma, above 51.7 µM; in the assay on MALME-3M melanoma, 13.4 µM; in the assay on MDA-N it was 0.544 µM; with OVCAR-3 ovarian, 0.813 µM. Further, the TGI in the assay on OVCAR-5 ovarian was above 57.8 µM; in the assay on SK-MEL-2 melanoma it was 6.19 µM; in the assay on SW-620 colon it was 11 µM; in the assay with TK-10 renal, above 100 µM.

As for `c1ccc(CCN2CCN=C2Cc2ccccc2)cc1`, the TGI with A549 NSCLC, in the assay on HS 578T breast, in the assay on LOX IMVI melanoma, in the assay with MALME-3M melanoma, in the assay with MDA-N and with OVCAR-3 ovarian was above 100 µM each time. Besides, the TGI with OVCAR-5 ovarian, in the assay with SK-MEL-2 melanoma, in the assay with SW-620 colon and in the assay with TK-10 renal was above 100 µM throughout.

With `N#CCOc1cccc(C2(N3CC=CCC3)CCCCC2)c1`, the TGI in the assay with A549 NSCLC, in the assay with HS 578T breast, in the assay with LOX IMVI melanoma, in the assay with MALME-3M melanoma, with MDA-N and with OVCAR-3 ovarian was above 100 µM in each case. Besides, the TGI in the assay on OVCAR-5 ovarian, with SK-MEL-2 melanoma, in the assay on SW-620 colon and in the assay on TK-10 renal was above 100 µM throughout.

In the case of `Clc1cc(OCC23CC4CC(CC(C4)C2)C3)nc(OCC23CC4CC(CC(C4)C2)C3)n1`, the TGI with A549 NSCLC, in the assay with HS 578T breast, in the assay with LOX IMVI melanoma, in the assay on MALME-3M melanoma, in the assay with MDA-N and with OVCAR-3 ovarian was above 100 µM throughout. For the same molecule, the TGI with OVCAR-5 ovarian, with SK-MEL-2 melanoma, in the assay on SW-620 colon and with TK-10 renal was above 100 µM throughout.

Take `Cc1[nH]c(=O)nc2nc3ccc(Cl)cc3c(NC(C)(CO)CO)c12`: the TGI with A549 NSCLC, with HS 578T breast, in the assay on LOX IMVI melanoma, in the assay on MALME-3M melanoma, in the assay on MDA-N and in the assay with OVCAR-3 ovarian was above 100 µM throughout. Also, the TGI with OVCAR-5 ovarian, in the assay on SK-MEL-2 melanoma, with SW-620 colon and with TK-10 renal was above 100 µM in each case.

As to `NC(=O)C[C@H](NC(=O)C1(NC(=O)[C@H](Cc2ccc(CP(=O)(O)O)cc2)NC(=O)C(=O)O)CCCCC1)C(=O)NCCCc1cccc2ccccc12`, the TGI with A549 NSCLC, in the assay with HS 578T breast, in the assay with LOX IMVI melanoma, with MALME-3M melanoma, in the assay with MDA-N and in the assay on OVCAR-3 ovarian was above 10 µM throughout. Also, the TGI with OVCAR-5 ovarian, in the assay on SK-MEL-2 melanoma, in the assay with SW-620 colon and in the assay on TK-10 renal was above 10 µM throughout.
